Common to all, as to test: NCI anticancer screen, dose series, 48 h
Assay [1] deals with MOLT-4.
In assay [2] the test system is U-251.
Assay [3] has as its system KM12.
Assay [4] has as its system OVCAR-5.
For assay [5], the system named is SF-295.
Assay [6] concerns M14.
Assay [7] has as its system TK-10.
The test system of assay [8] is HT-29.
Assay [9] relates to RXF 393.
Assay [10] concerns HOP-92.
Assay [11] has as its system HCT-15.
For assay [12], the system named is NCI-H226.
Assay [13] has as its system SF-268.
Assay [14] relates to T47D.
The test system of assay [15] is RPMI-8226.
For assay [16], the system named is SN12C.
Assay [17] has as its system HL-60.
The subject of assay [18] is ACHN.
The subject of assay [19] is UACC-62.
Assay [20] deals with NCI-H522.

SMILES strings stand for the structures.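 In this assay, cells in 96-well plates receive the compound at five concentrations for 48 hours. Endpoints are linearly interpolated between the surrounding concentrations. Abbreviation: GI50, concentration required for 50% inhibition of growth.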 The source made the active and inactive calls. Cut-off read from the data, not from the text of the source: active = GI50 up to about 1.1 µM and inactive = higher. Where only a bound is given, the exact number is not on record here.

Turning to `CC(=O)Nc1ccc(Nc2cc(O)nc(O)n2)cc1`, the GI50 in assay [1] is 18.2 µM (inactive); in [2], > 100 µM (inactive); in assay [3], > 100 µM (inactive); in assay [4], > 100 µM (inactive); in assay [5], > 100 µM (inactive); in assay [6], > 100 µM (inactive). Moreover, the GI50 in assay [7] was > 100 µM (inactive); in assay [8], > 100 µM (inactive); in [9], > 100 µM (inactive); in [10], > 100 µM (inactive); in assay [11], greater than 100 µM; in assay [12], > 100 µM (inactive). Besides, the GI50 in assay [13] was > 100 µM (inactive); in [14], 14.1 µM (inactive); in [15], > 100 µM (inactive); in [16], > 100 µM (inactive); in assay [17] it was > 100 µM (inactive); in assay [18] it was > 100 µM (inactive).

In the case of `Nc1nc(Cc2ccccc2)nc(Cc2ccccc2)c1-c1ccccc1`, the GI50 is 11.2 µM (inactive) in assay [1]; 17.9 µM (inactive) in assay [2]; 18 µM (inactive) in assay [19]; 28.1 µM (inactive) in assay [3]; 29.1 µM (inactive) in assay [4]; 25.6 µM (inactive) in [5]. In addition, the GI50 in assay [6] was 30.3 µM (inactive); in assay [7] it was 56.9 µM (inactive); in [8], 21.9 µM (inactive); in assay [9], 22.6 µM (inactive); in assay [10], 11.5 µM (inactive); in assay [11], 21.5 µM. Moreover, the GI50 in assay [12] was 19.2 µM (inactive); in [13] it was 31 µM (inactive); in [14] it was 36.8 µM (inactive); in assay [16], 28.2 µM (inactive); in [20] it was 16.9 µM (inactive); in assay [17], 24 µM (inactive). The GI50 in [18] was 29 µM (inactive).

With `CC(C)OC(=O)NNc1cccc(Cl)c1`, the GI50 is > 100 µM (inactive) in assay [1]; > 100 µM (inactive) in assay [2]; 38.4 µM (inactive) in assay [19]; > 100 µM (inactive) in assay [3]; > 100 µM (inactive) in assay [4]; > 100 µM (inactive) in [5]. The GI50 in [6] was > 100 µM (inactive); in [7], > 100 µM (inactive); in assay [8], > 100 µM (inactive); in [9], > 100 µM (inactive); in [10], > 100 µM (inactive); in [11], greater than 100 µM. Besides, the GI50 in [12] is > 100 µM (inactive); in assay [13], > 100 µM (inactive); in assay [14], > 100 µM (inactive); in assay [15], 66.1 µM (inactive); in assay [16] it was > 100 µM (inactive); in assay [17], 33.3 µM (inactive). Further, the GI50 in [18] is > 100 µM (inactive).

`O=C(O)[C@H]1CCCN1CP(=O)(O)CN1CCC[C@@H]1C(=O)O`: the GI50 in assay [1], in [2], in [19], in assay [3], in assay [4] and in assay [5] was > 100 µM (inactive) in each case. The GI50 in assay [6] was > 100 µM (inactive); in assay [8] it was > 100 µM (inactive); in assay [9] it was > 100 µM (inactive); in [10] it was > 100 µM (inactive); in [11], greater than 100 µM; in assay [13] it was > 100 µM (inactive). Moreover, the GI50 in assay [14], in assay [16], in assay [20], in assay [17] and in assay [18] was > 100 µM (inactive) each time.

Values taken from ChEMBL document CHEMBL1201862, “PubChem BioAssay data set” (2004).
